Assays:
[1] = system: SW837(G12C); test: Cell selectivity test, proliferation inhibition SW837; type: cell-based; conditions: Homo sapiens, 72 hours
From the text: (§1) • 1. Test purpose: to detect the proliferation inhibition of the test compounds on NCI-H23, NCI-H2122, HCC827, Mia paca2, A549 and SW837 cell lines. • 2. […] No. FND500); Penicillin-streptomycin was purchased from Gibco (Art. No. 15140-122); 0.25% trypsin-ethylenediaminetetraacetic acid digestive juice (Trypsin-EDTA) was purchased from Gibco (Art. No. 25200-072); dimethyl sulfoxide (DMSO) was purchased from Sigma (Art. No. D2650); 96-well cell plate was purchased from Corning (Art. No. 3610); incubator was purchased from NuAire (model number: NU-5700E); Biosafety cabinet was purchased from AuAire (model number: NU-543-600S); Inverted microscope was purchased from Nikon (Art. No. TS-100); Automated cell counter was purchased from Life technologies (model number: Countess II); Microplate reader was purchased from PerkinElmer (model number: Envision); the data processing software was GraphPad Prism 5.0. […]

[2] = system: A549(G12S); test: Cell selectivity test, proliferation inhibition A549; type: cell-based; conditions: Homo sapiens, 72 hours
From the text: as §1

[3] = system: phosphorylation level of ERK in NCI-H358 cells; test: NCI-H358 pERK inhibitory activity (HTRF phospho-ERK); type: cell-based; conditions: Homo sapiens, 1 hour incubation
Description: Test purpose: to detect the inhibitory effect of the test compound on the phosphorylation level of ERK in NCI-H358 cells. • 2. […] Test method:
NCI-H358 cells suspension was seeded at 80 μL per well in a clear 96-well cell culture plate, with 10000 cells each well. The cell culture plate was placed in an incubator and incubated overnight at 37° C. under 5% CO2. After incubation, the cell supernatant was discarded, 80 μL of PRMI1640 medium containing 0.02% serum was added to each well, and the cell culture plate was placed in an incubator and incubated overnight at 37° C., under 5% CO2. The test compound was diluted with 100% DMSO to 4 mmol/L as the first concentration, and then diluted 5-fold to the 8th concentration using a pipette. 2 μL of compound or DMSO (as negative control) was taken and added with 158 μL of cell culture medium. After mixing evenly, 20 μL of the compound solution was taken and added to corresponding cell plate well. […] After incubation, the signals at 615 nm and 665 nm were read using a multi-label analyzer. The percent inhibition was calculated according to the following formula: Ratio=(signal 665 nm/signal 615 nm)×10000; the percent inhibition=(ratio of test compound-ratio of negative control)/(ratio of blank-ratio of negative control)×100%.

[4] = system: NCI-H23 (G12C); test: Cell selectivity test, proliferation inhibition NCI-H23; type: cell-based; conditions: Homo sapiens, 72 hours
From the text: as §1

[5] = system: Mia paca2(G12C); test: Cell selectivity test, proliferation inhibition Mia paca2; type: cell-based; conditions: Homo sapiens, MIA PaCa-2, 72 hours
From the text: as §1

[6] = system: NCI-H2122 (G12C); test: Cell selectivity test, proliferation inhibition NCI-H2122; type: cell-based; conditions: Homo sapiens, 72 hours
From the text: as §1

[7] = system: HCC827(wt); test: Cell selectivity test, proliferation inhibition HCC827; type: cell-based; conditions: Homo sapiens, 72 hours
From the text: as §1

[8] = Pharmacokinetics study in mice (IV and PO); type: in vivo; conditions: ICR male mice
Description: Preparation of 0.5% methyl cellulose: 5 g of methyl cellulose were weighed and dissolved in 1000 mL of purified water.
Preparation of oral formulation: a required amount of the test compound was weighed and dissolved in 0.5% methyl cellulose solution to obtain a suspension or solution of 0.5 mg/mL.
Preparation of intravenous injection formulation: a required amount of test compound was weighed, and dissolved in 0.5 mL of dimethyl sulfoxide to prepare a solution of 4 mg/mL. 0.06 mL of the above solution was taken, and 0.12 mL of polyethylene glycol 15 hydroxystearate (solutol) and 1.02 mL of normal saline were added thereto to obtain a solution of 0.2 mg/mL.
Feeding 4 hours after administration.
Sample Collection: blood was collected via the jugular vein or other suitable vein, and 0.03 mL blood was collected at each time point. Samples were placed into tubes containing ethylenediaminetetraacetic acid dipotassium salt and kept on ice before centrifugation. Within 1 hour after blood collection, the blood samples were centrifuged at 2-8° C. and 6800 g for 6 minutes and stored at −80° C. The time points for blood collection were 0.083, 0.25, 0.5, 1, 2, 4, 8 and 24 hours after intravenous and oral administration.

[9] = mouse, plasma, intravenous injection, 1 mg/kg
[10] = mouse, plasma, oral gavage, 5 mg/kg

C=CC(=O)N1CCN(c2nc(=O)n(-c3c(C)ccnc3C(C)C)c3nc(-c4c(O)cccc4F)c(F)cc23)[C@@H](C)C1 [AMG510]
IC50 [1]: 0.285 µM
IC50 [2]: > 10 µM
IC50 [3]: 0.0883 µM
IC50 [4]: 0.00755 µM
IC50 [5]: 0.0157 µM
IC50 [6]: 0.027 µM
IC50 [7]: > 10 µM
F ([8]; oral gavage, 5 mg/kg): 0.33%
AUC(0-inf) [8, 9]: 227 ng·h/mL
Cmax [8, 9]: 623 ng/mL
clearance [8, 9]: 74.7 mL/min/kg
half-life [8, 9]: 13.2 min
Vd ([8]; mouse, plasma, intravenous injection, 1 mg/kg, read-out: Vz): 1.42 L/kg
AUC(0-inf) [8, 10]: 6.12 ng·h/mL
Cmax [8, 10]: 7.25 ng/mL
half-life [8, 10]: 21.6 min

Reference: patent US20250034161A1, “SPIROCYCLIC COMPOUND AS KRAS-G12C INHIBITOR” (Shanghai Euregen Biopharma Co., Ltd., priority 2020, published 2025)
